Biological target: T1, ATP-dependent translocase ABCB1 (Homo sapiens, UniProt P08183)
Assay: Concentration required for 50% inhibition at binding site of human P-Glycoprotein (P-gp) in one-affinity model

T1 sequence (P08183 whole entry): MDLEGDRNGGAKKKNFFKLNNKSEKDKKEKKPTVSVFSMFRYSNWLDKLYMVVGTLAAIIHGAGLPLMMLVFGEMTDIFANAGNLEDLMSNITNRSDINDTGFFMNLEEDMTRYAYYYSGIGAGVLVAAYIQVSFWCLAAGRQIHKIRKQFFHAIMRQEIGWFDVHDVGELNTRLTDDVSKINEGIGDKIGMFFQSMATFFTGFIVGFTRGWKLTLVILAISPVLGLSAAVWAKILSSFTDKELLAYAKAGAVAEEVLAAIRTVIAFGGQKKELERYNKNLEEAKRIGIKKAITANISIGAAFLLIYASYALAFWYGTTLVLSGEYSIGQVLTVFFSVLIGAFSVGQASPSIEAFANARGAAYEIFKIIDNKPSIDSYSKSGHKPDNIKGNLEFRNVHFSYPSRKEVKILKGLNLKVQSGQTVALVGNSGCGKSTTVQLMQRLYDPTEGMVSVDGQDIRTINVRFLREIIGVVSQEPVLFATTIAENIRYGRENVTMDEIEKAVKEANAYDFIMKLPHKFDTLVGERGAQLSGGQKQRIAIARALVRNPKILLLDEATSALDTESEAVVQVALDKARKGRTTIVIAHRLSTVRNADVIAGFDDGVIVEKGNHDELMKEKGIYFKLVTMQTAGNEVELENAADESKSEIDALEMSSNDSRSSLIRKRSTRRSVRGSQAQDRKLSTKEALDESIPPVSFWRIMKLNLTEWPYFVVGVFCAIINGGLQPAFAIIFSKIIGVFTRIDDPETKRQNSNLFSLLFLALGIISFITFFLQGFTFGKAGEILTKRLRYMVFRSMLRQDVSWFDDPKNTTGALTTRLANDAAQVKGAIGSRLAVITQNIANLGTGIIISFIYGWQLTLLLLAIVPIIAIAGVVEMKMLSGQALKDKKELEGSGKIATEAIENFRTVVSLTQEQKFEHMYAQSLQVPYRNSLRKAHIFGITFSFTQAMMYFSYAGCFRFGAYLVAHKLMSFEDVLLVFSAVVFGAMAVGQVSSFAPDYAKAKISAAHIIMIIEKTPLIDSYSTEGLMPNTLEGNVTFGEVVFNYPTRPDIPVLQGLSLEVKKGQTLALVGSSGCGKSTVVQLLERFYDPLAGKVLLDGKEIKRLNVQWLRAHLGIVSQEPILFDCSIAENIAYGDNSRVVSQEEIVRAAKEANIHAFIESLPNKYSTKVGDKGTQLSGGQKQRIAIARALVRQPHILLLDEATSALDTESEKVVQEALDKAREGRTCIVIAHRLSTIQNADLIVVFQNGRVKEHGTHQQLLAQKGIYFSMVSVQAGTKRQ

| IC50 | SMILES |
| --- | --- |
| 0.5 µM | COC(=O)c1ccccc1-c1c2ccc(=N)cc-2oc2cc(N)ccc12 |
| 4.24 µM | COc1ccc(CCNCCCC(C#N)(c2ccc(OC)c(OC)c2)C(C)C)cc1OC (racemic) [NORVERAPAMIL] |
| 89 µM | COc1ccc2[nH]c([S+]([O-])Cc3ncc(C)c(OC)c3C)nc2c1 (stereo in doubt; form 1) [OMEPRAZOLE] |
| 97.2 µM | COc1ccc2[nH]c([S+]([O-])Cc3ncc(C)c(OC)c3C)nc2c1 (stereo in doubt; form 2) [OMEPRAZOLE] |
| 91.2 µM | COc1ccc2[nH]c([S+]([O-])Cc3ncc(C)c(OC)c3C)nc2c1 (stereo in doubt; form 3) [OMEPRAZOLE] |

Biological target: T1, ATP-dependent translocase ABCB1
Assay: Fraction of high affinity at binding site of human P-Glycoprotein (P-gp) in two-affinity model

| Binding site fraction | SMILES |
| --- | --- |
| 0.7 | COC(=O)c1ccccc1-c1c2ccc(=N)cc-2oc2cc(N)ccc12 |
| 0.8 | CN(C)CCCN1c2ccccc2Sc2ccc(Cl)cc21 [CHLORPROMAZINE] |
| 0.3 | O=C(CCCN1CCC(O)(c2ccc(Cl)cc2)CC1)c1ccc(F)cc1 [HALOPERIDOL] |
| 0.2 | COCCc1ccc(OCC(O)CNC(C)C)cc1 (stereo not given) [METOPROLOL] |
| 0.2 | CC(C)NCC(O)COc1ccc(CCNC(=O)NC(C)C)cc1 (stereo not given) [PAFENOLOL] |
| 0.5 | CC(C)NCC(O)COc1cccc2ccccc12 (stereo not given) [PROPRANOLOL] |
| 0.2 | C=C[C@H]1C[N@@]2CC[C@H]1C[C@@H]2[C@@H](O)c1ccnc2ccc(OC)cc12 [QUINIDINE] |
| 0.2 | C=C[C@H]1C[N@@]2CC[C@H]1C[C@H]2[C@H](O)c1ccnc2ccc(OC)cc12 [QUININE] |
| 0.4 | CC[C@]1(O)C[C@@H]2CN(CCc3c([nH]c4ccccc34)[C@@](C(=O)OC)(c3cc4c(cc3OC)N(C)[C@H]3[C@@](O)(C(=O)OC)[C@H](OC(C)=O)[C@]5(CC)C=CCN6CC[C@]43[C@@H]65)C2)C1 [VINBLASTINE] |

Biological target: T1, ATP-dependent translocase ABCB1
Assay: High affinity constant at binding site of human P-Glycoprotein (P-gp) in two-affinity model

| Ki | SMILES |
| --- | --- |
| 0.1 µM | COC(=O)c1ccccc1-c1c2ccc(=N)cc-2oc2cc(N)ccc12 |
